Reference: article PMC4917279 (Journal of Medicinal Chemistry, 2016)

Columns and labels:
PIK3CA(H1047L) = biological target: T1, PIK3CA(H1047L) (Homo sapiens, UniProt P42336, H1047L); experiment: KINOMEscan; format: binding; settings: read-out: %Ctrl @ 1000 nM
T1 construct: purchased DiscoveRx KINOMEscan

STK16 = biological target: T2, STK16 (Homo sapiens, UniProt O75716); experiment: KINOMEscan; format: binding; settings: read-out: %Ctrl @ 1000 nM
T2 construct: purchased DiscoveRx KINOMEscan

HIPK3 = biological target: T3, HIPK3 (Homo sapiens, UniProt Q9H422); experiment: KINOMEscan; format: binding; settings: read-out: %Ctrl @ 1000 nM
T3 construct: purchased DiscoveRx KINOMEscan

PRKCI = biological target: T4, PRKCI (Homo sapiens, UniProt P41743); experiment: KINOMEscan; format: binding; settings: read-out: %Ctrl @ 1000 nM
T4 construct: purchased DiscoveRx KINOMEscan

ERK1 = biological target: T5, ERK1 (Homo sapiens, UniProt P27361); experiment: KINOMEscan; format: binding; settings: read-out: %Ctrl @ 1000 nM
T5 construct: purchased DiscoveRx KINOMEscan

[1] = biological target: T6, RPS6KA5(Kin.Dom.1-N-terminal) (Homo sapiens, UniProt O75582); experiment: KINOMEscan; format: binding; settings: read-out: %Ctrl @ 1000 nM
T6 construct: RPS6KA5(Kin.Dom.1-N-terminal); purchased DiscoveRx KINOMEscan

AKT1 = biological target: T7, AKT1 (Homo sapiens, UniProt P31749); experiment: KINOMEscan; format: binding; settings: read-out: %Ctrl @ 1000 nM
T7 construct: purchased DiscoveRx KINOMEscan

PLK4 = biological target: T8, PLK4 (Homo sapiens, UniProt O00444); experiment: KINOMEscan; format: binding; settings: read-out: %Ctrl @ 1000 nM
T8 construct: purchased DiscoveRx KINOMEscan

ICK = biological target: T9, ICK (Homo sapiens, UniProt Q9UPZ9); experiment: KINOMEscan; format: binding; settings: read-out: %Ctrl @ 1000 nM
T9 construct: purchased DiscoveRx KINOMEscan

CAMK2B = biological target: T10, CAMK2B (Homo sapiens, UniProt Q13554); experiment: KINOMEscan; format: binding; settings: read-out: %Ctrl @ 1000 nM
T10 construct: purchased DiscoveRx KINOMEscan

TYRO3 = biological target: T11, TYRO3 (Homo sapiens, UniProt Q06418); experiment: KINOMEscan; format: binding; settings: read-out: %Ctrl @ 1000 nM
T11 construct: purchased DiscoveRx KINOMEscan

PCTK3 = biological target: T12, PCTK3 (Homo sapiens, UniProt Q07002); experiment: KINOMEscan; format: binding; settings: read-out: %Ctrl @ 1000 nM
T12 construct: purchased DiscoveRx KINOMEscan

[2] = biological target: T13, TYK2(JH2domain-pseudokinase) (Homo sapiens, UniProt P29597); experiment: KINOMEscan; format: binding; settings: read-out: %Ctrl @ 1000 nM
T13 construct: TYK2(JH2domain-pseudokinase); purchased DiscoveRx KINOMEscan

DRAK1 = biological target: T14, DRAK1 (Homo sapiens, UniProt Q9UEE5); experiment: KINOMEscan; format: binding; settings: read-out: %Ctrl @ 1000 nM
T14 construct: purchased DiscoveRx KINOMEscan

EIF2AK1 = biological target: T15, EIF2AK1 (Homo sapiens, UniProt Q9BQI3); experiment: KINOMEscan; format: binding; settings: read-out: %Ctrl @ 1000 nM
T15 construct: purchased DiscoveRx KINOMEscan

p38-delta = biological target: T16, p38-delta (Homo sapiens, UniProt O15264); experiment: KINOMEscan; format: binding; settings: read-out: %Ctrl @ 1000 nM
T16 construct: purchased DiscoveRx KINOMEscan

MAPKAPK5 = biological target: T17, MAPKAPK5 (Homo sapiens, UniProt Q8IW41); experiment: KINOMEscan; format: binding; settings: read-out: %Ctrl @ 1000 nM
T17 construct: purchased DiscoveRx KINOMEscan

PIP5K2C = biological target: T18, PIP5K2C (Homo sapiens, UniProt Q8TBX8); experiment: KINOMEscan; format: binding; settings: read-out: %Ctrl @ 1000 nM
T18 construct: purchased DiscoveRx KINOMEscan

SMYD2 = SMYD2 (Homo sapiens, UniProt Q9NRG4); experiment: Ex vivo methylation detection by dot blot (AHNAK) in SMYD2-overexpressing KYSE-150 xenografts; set-up: expressed in transfected cells; species or system mouse; settings: 3 days
[3] = biological target: T19, EGFR(L747-S752del, P753S) (Homo sapiens, UniProt P00533, DEL747-752/P753S); experiment: KINOMEscan; format: binding; settings: read-out: %Ctrl @ 1000 nM
T19 construct: purchased DiscoveRx KINOMEscan

[4] = biological target: RPS6KA5(Kin.Dom.2-C-terminal) (Homo sapiens, UniProt O75582); experiment: KINOMEscan; format: binding; settings: read-out: %Ctrl @ 1000 nM
OSR1 = biological target: T20, OSR1 (Homo sapiens, UniProt O95747); experiment: KINOMEscan; format: binding; settings: read-out: %Ctrl @ 1000 nM
T20 construct: purchased DiscoveRx KINOMEscan

ZAP70 = biological target: T21, ZAP70 (Homo sapiens, UniProt P43403); experiment: KINOMEscan; format: binding; settings: read-out: %Ctrl @ 1000 nM
T21 construct: purchased DiscoveRx

PHKG1 = biological target: T22, PHKG1 (Homo sapiens, UniProt Q16816); experiment: KINOMEscan; format: binding; settings: read-out: %Ctrl @ 1000 nM
T22 construct: purchased DiscoveRx KINOMEscan

EPHA2 = biological target: T23, EPHA2 (Homo sapiens, UniProt P29317); experiment: KINOMEscan; format: binding; settings: read-out: %Ctrl @ 1000 nM
T23 construct: purchased DiscoveRx KINOMEscan

EPHA8 = biological target: T24, EPHA8 (Homo sapiens, UniProt P29322); experiment: KINOMEscan; format: binding; settings: read-out: %Ctrl @ 1000 nM
T24 construct: purchased DiscoveRx KINOMEscan

CDKL3 = biological target: T25, CDKL3 (Homo sapiens, UniProt Q8IVW4); experiment: KINOMEscan; format: binding; settings: read-out: %Ctrl @ 1000 nM
T25 construct: purchased DiscoveRx KINOMEscan

CDKL2 = biological target: T26, CDKL2 (Homo sapiens, UniProt Q92772); experiment: KINOMEscan; format: binding; settings: read-out: %Ctrl @ 1000 nM
T26 construct: purchased DiscoveRx KINOMEscan

EGFR = biological target: T27, EGFR (Homo sapiens, UniProt P00533); experiment: KINOMEscan; format: binding; settings: read-out: %Ctrl @ 1000 nM
T27 construct: purchased DiscoveRx KINOMEscan

ACVR1B = biological target: T28, ACVR1B (Homo sapiens, UniProt P36896); experiment: KINOMEscan; format: binding; settings: read-out: %Ctrl @ 1000 nM
T28 construct: purchased DiscoveRx

CAMK1G = biological target: T29, CAMK1G (Homo sapiens, UniProt Q96NX5); experiment: KINOMEscan; format: binding; settings: read-out: %Ctrl @ 1000 nM
T29 construct: purchased DiscoveRx KINOMEscan

JNK2 = biological target: T30, JNK2 (Homo sapiens, UniProt P45984); experiment: KINOMEscan; format: binding; settings: read-out: %Ctrl @ 1000 nM
T30 construct: purchased DiscoveRx KINOMEscan

IKK-beta = biological target: T31, IKK-beta (Homo sapiens, UniProt O14920); experiment: KINOMEscan; format: binding; settings: read-out: %Ctrl @ 1000 nM
T31 construct: purchased DiscoveRx KINOMEscan

PRKR = biological target: T32, PRKR (Homo sapiens, UniProt P19525); experiment: KINOMEscan; format: binding; settings: read-out: %Ctrl @ 1000 nM
T32 construct: purchased DiscoveRx KINOMEscan

ROS1 = biological target: T33, ROS1 (Homo sapiens, UniProt P08922); experiment: KINOMEscan; format: binding; settings: read-out: %Ctrl @ 1000 nM
T33 construct: purchased DiscoveRx KINOMEscan

TESK1 = biological target: T34, TESK1 (Homo sapiens, UniProt Q15569); experiment: KINOMEscan; format: binding; settings: read-out: %Ctrl @ 1000 nM
T34 construct: purchased DiscoveRx KINOMEscan

MAP4K3 = biological target: T35, MAP4K3 (Homo sapiens, UniProt Q8IVH8); experiment: KINOMEscan; format: binding; settings: read-out: %Ctrl @ 1000 nM
T35 construct: purchased DiscoveRx KINOMEscan

FLT3(D835Y) = biological target: T36, FLT3(D835Y) (Homo sapiens, UniProt P36888, D835Y); experiment: KINOMEscan; format: binding; settings: read-out: %Ctrl @ 1000 nM
T36 construct: purchased DiscoveRx KINOMEscan

[5] = biological target: T37, RSK1(Kin.Dom.1-N-terminal) (Homo sapiens, UniProt Q15418); experiment: KINOMEscan; format: binding; settings: read-out: %Ctrl @ 1000 nM
T37 construct: RSK1(Kin.Dom.1-N-terminal); purchased DiscoveRx KINOMEscan

p38-alpha = biological target: T38, p38-alpha (Homo sapiens, UniProt Q16539); experiment: KINOMEscan; format: binding; settings: read-out: %Ctrl @ 1000 nM
T38 construct: purchased DiscoveRx KINOMEscan

YANK1 = biological target: T39, YANK1 (Homo sapiens, UniProt Q8WU08); experiment: KINOMEscan; format: binding; settings: read-out: %Ctrl @ 1000 nM
T39 construct: purchased DiscoveRx KINOMEscan

Sequence of SMYD2 (Q9NRG4 whole entry): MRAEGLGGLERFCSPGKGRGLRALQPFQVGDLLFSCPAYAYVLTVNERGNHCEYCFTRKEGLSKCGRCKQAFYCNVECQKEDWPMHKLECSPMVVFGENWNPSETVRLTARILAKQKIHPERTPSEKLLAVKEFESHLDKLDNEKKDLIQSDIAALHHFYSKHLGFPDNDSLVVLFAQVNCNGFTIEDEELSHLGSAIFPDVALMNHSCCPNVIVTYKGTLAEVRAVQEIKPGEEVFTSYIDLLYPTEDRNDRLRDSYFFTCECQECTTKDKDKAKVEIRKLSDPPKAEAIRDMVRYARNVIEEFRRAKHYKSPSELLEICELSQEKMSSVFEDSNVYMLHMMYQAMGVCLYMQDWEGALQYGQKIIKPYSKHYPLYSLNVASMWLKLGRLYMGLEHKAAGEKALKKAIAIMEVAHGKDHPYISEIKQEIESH
T17 sequence (Q8IW41 whole entry): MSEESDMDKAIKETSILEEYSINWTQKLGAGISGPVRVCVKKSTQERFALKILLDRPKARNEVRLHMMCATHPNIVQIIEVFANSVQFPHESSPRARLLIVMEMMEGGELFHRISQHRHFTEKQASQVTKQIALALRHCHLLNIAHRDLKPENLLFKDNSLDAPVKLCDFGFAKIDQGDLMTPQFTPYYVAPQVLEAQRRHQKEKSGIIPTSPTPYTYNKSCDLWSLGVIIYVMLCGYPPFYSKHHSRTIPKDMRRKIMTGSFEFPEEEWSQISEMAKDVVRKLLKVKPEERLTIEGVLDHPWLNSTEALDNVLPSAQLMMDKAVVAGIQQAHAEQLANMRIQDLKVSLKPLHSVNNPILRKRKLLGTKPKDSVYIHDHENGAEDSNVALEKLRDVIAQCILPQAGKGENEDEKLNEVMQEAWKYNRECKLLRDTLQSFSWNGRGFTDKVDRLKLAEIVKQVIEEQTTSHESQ
T21 sequence (P43403 whole entry): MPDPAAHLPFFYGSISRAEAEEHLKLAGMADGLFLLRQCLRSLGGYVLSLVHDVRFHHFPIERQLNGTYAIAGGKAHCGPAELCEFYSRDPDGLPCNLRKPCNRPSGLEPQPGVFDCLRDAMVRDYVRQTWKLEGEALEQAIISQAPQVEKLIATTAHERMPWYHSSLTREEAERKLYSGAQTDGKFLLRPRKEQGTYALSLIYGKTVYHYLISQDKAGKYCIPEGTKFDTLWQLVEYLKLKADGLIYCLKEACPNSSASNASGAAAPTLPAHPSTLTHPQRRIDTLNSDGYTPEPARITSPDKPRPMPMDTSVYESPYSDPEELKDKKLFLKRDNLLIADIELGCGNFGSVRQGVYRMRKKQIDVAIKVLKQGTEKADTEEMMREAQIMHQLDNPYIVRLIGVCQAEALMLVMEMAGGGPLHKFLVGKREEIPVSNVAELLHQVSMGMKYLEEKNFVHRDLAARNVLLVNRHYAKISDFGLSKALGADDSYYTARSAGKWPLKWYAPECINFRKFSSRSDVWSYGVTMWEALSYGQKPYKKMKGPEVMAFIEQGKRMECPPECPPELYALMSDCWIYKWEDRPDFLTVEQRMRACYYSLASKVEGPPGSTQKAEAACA
T9 sequence (Q9UPZ9 whole entry): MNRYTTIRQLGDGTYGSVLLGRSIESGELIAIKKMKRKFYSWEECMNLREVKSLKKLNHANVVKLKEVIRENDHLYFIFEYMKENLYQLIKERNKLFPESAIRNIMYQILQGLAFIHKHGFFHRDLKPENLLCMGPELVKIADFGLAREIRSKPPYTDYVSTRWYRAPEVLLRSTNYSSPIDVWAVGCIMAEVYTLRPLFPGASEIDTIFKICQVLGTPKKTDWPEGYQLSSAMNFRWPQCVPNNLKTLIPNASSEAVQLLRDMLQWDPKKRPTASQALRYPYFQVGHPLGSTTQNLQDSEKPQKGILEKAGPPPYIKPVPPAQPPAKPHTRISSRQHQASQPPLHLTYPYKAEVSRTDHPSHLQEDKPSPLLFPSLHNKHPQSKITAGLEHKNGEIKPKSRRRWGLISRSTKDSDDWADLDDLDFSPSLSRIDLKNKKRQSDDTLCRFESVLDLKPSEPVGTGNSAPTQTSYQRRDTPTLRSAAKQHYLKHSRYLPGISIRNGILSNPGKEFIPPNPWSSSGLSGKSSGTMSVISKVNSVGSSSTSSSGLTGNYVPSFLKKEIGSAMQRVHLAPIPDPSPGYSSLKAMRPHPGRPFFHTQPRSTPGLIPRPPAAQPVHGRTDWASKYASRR
T18 sequence (Q8TBX8 whole entry): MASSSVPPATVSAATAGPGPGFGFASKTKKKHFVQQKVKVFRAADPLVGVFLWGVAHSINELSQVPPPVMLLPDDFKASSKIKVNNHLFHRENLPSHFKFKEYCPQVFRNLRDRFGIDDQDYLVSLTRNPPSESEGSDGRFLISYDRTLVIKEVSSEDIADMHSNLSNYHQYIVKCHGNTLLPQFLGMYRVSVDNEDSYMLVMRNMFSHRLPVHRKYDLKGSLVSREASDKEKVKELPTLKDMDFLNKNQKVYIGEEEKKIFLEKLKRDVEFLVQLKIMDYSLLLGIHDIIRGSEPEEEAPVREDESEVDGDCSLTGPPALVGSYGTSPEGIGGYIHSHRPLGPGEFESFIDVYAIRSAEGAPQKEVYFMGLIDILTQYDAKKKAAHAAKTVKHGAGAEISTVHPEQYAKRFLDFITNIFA
T16 sequence (O15264 whole entry): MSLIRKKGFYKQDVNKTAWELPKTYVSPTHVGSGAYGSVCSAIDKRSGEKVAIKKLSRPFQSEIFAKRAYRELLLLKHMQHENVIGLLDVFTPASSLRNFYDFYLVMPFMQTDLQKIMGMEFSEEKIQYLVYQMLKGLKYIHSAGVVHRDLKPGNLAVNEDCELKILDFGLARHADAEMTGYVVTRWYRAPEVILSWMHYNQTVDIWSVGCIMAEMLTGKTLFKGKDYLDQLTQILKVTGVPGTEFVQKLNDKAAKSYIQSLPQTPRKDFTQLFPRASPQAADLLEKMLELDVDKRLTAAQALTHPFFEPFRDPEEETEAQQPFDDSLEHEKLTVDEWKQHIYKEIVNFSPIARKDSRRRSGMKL
T8 sequence (O00444 whole entry): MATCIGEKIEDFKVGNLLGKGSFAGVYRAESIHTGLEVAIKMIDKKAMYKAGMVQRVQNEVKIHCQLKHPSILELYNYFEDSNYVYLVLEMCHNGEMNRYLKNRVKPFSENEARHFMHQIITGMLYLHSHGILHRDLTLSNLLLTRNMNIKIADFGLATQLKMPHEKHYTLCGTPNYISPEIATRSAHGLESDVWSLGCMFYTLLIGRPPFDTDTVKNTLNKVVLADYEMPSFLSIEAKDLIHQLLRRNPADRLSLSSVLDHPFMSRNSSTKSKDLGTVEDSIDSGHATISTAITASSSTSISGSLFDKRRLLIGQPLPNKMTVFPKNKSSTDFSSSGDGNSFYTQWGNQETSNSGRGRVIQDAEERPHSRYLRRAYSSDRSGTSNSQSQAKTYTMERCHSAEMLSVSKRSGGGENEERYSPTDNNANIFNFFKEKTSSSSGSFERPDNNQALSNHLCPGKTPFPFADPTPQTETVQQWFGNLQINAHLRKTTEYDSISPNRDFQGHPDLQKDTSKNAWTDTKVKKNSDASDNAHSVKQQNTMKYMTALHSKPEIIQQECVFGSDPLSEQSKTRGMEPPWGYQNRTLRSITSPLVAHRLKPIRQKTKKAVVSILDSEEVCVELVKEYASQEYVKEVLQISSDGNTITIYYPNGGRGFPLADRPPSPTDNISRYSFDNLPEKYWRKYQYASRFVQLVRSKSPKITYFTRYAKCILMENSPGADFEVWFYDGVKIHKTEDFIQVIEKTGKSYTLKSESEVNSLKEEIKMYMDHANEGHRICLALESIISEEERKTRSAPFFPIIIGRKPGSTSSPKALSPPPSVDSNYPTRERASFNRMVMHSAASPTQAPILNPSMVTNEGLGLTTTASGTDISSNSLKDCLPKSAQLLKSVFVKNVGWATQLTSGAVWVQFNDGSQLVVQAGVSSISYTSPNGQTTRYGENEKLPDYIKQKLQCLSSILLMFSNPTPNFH
T30 sequence (P45984 whole entry): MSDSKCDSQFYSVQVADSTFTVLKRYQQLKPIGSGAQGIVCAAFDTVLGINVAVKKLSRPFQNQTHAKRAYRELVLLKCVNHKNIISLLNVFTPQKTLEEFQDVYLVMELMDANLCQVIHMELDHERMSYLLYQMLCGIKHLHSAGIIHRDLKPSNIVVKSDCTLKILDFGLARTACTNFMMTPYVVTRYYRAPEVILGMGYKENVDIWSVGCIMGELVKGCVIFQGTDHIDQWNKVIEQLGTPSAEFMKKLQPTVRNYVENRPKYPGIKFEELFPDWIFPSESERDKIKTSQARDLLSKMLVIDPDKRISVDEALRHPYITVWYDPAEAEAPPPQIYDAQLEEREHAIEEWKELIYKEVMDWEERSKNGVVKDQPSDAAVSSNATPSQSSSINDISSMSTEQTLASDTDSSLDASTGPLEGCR
T29 sequence (Q96NX5 whole entry): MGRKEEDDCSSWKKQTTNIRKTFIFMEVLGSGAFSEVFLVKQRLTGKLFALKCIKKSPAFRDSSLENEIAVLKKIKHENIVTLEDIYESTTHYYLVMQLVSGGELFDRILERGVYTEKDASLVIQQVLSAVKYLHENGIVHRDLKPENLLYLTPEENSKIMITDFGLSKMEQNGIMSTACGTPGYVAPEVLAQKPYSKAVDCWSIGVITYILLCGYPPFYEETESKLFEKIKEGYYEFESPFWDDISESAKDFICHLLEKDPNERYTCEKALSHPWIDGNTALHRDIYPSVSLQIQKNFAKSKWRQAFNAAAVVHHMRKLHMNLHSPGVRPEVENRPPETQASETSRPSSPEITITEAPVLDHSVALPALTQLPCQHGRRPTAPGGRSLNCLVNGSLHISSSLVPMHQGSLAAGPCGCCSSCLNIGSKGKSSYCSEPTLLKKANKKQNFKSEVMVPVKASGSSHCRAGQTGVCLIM

CCN(C(=O)CO)[C@H]1CN(/C(=N\C#N)Nc2cccc(OC(F)F)c2)N=C1c1ccc(Cl)c(Cl)c1 [(S)-4]
remaining binding at 1 µM (PIK3CA(H1047L)): 92% | remaining binding at 1 µM (STK16): 84% | remaining binding at 1 µM (HIPK3): 100% | remaining binding at 1 µM (PRKCI): 63% | remaining binding at 1 µM (ERK1): 100% | remaining binding at 1 µM [1]: 93% | remaining binding at 1 µM (AKT1): 84% | remaining binding at 1 µM (PLK4): 56% | remaining binding at 1 µM (ICK): 99% | remaining binding at 1 µM (CAMK2B): 100% | remaining binding at 1 µM (TYRO3): 100% | remaining binding at 1 µM (PCTK3): 92% | remaining binding at 1 µM [2]: 95% | remaining binding at 1 µM (DRAK1): 100% | remaining binding at 1 µM (EIF2AK1): 100% | remaining binding at 1 µM (p38-delta): 72% | remaining binding at 1 µM (MAPKAPK5): 100% | remaining binding at 1 µM (PIP5K2C): 85% | Ex vivo AHNAK methylation in tumors (SMYD2; 10 mg/kg po qd): no significant effect | Ex vivo AHNAK methylation in tumors (SMYD2; 100 mg/kg po qd): most significant effects | Ex vivo AHNAK methylation in tumors (SMYD2; doses starting from 30 mg/kg po qd): significantly reduced | remaining binding at 1 µM [3]: 86% | remaining binding at 1 µM [4]: 99% | remaining binding at 1 µM (OSR1): 78% | remaining binding at 1 µM (ZAP70): 100% | remaining binding at 1 µM (PHKG1): 97% | remaining binding at 1 µM (EPHA2): 84% | remaining binding at 1 µM (EPHA8): 94% | remaining binding at 1 µM (CDKL3): 96% | remaining binding at 1 µM (CDKL2): 100% | remaining binding at 1 µM (EGFR): 99% | remaining binding at 1 µM (ACVR1B): 100% | remaining binding at 1 µM (CAMK1G): 98% | remaining binding at 1 µM (JNK2): 100% | remaining binding at 1 µM (IKK-beta): 100% | remaining binding at 1 µM (PRKR): 84% | remaining binding at 1 µM (ROS1): 68% | remaining binding at 1 µM (TESK1): 94% | remaining binding at 1 µM (MAP4K3): 90% | remaining binding at 1 µM (FLT3(D835Y)): 78% | remaining binding at 1 µM [5]: 100% | remaining binding at 1 µM (p38-alpha): 86% | remaining binding at 1 µM (YANK1): 77%
